# Experiments:
# [1] = test system: collagen-induced arthritis; assay: Collagen-induced arthritis (CIA) mouse model; type: in vivo
# [2] = test system: RAW264.7 cell line; assay: LPS-stimulated TNF secretion by ELISA in RAW264.7 cells; type: cell-based, mouse
# Experimental: The murine RAW264.7 cell line was stimulated with LPS in the presence of FK866. TNF protein concentrations were determined by ELISA (above panel) while mRNA levels were determined by RT-PCR (below panel).
# (A) The mouse macrophage cell line RAW264.7 was cultured overnight with increasing doses of FK866, and then stimulated with LPS for 2 h. The culture supernatants were tested for TNF content by ELISA and intracellular NAD levels were measured by an enzymatic assay.
# (B) RAW264.7 cells were cultured overnight in the presence of FK866 and the intracellular pool of NAD was restored by co-incubation of the cells with nicotinic acid (NA). Cells were then stimulated with LPS for 2 h and the culture supernatant was tested for TNF content by ELISA.
# (C) RAW264.7 cells were cultured overnight in the presence of FK866 and NAD levels were maintained by culturing the cells in the presence of extracellular NAD. Cells were then stimulated with LPS for 2 h and the culture supernatant was tested for TNF content by ELISA.
# This example illustrates that FK866 inhibits TNFα secretion at a posttranscriptional level. The murine RAW 264.7 cell line was incubated in the presence of graded doses of FK866, stimulated with microbial products, and levels of TNFα released in the supernatant evaluated by ELISA.
# This example illustrates the correlation between proinflammatory cytokine secretion and NAD levels in the cell. The mouse macrophage cell line RAW264.7 was cultured overnight with increasing doses of FK866, and then stimulated with LPS for 2 h. The culture supernatants were tested for TNF content by ELISA and intracellular NAD levels were measured by an enzymatic assay.
# In another experiment, RAW264.7 cells were cultured overnight in the presence of FK866 and the intracellular pool of NAD was restored by co-incubation of the cells with nicotinic acid. Nicotinic acid is a precursor of NAD, but its transformation into NAD is not dependent upon NMPRT and is thus not inhibited by FK866. Cells were then stimulated with LPS for 2 h and the culture supernatant was tested for TNF content by ELISA.
# In another experiment, RAW264.7 cells were cultured overnight in the presence of FK866 and NAD levels were maintained by culturing the cells in the presence: of extra-cellular NAD. Cells were then stimulated with LPS for 2 h and the culture supernatant was tested for TNF content by ELISA.
# [3] = test system: Human PBMC; assay: MTT cell viability assay in PBMC; type: cell-based; conditions: overnight increasing doses of FK866, LPS 6 h
# Experimental: (A) Human PBMC were isolated and cultured overnight with increasing doses of FK866, and then stimulated with LPS for 6 h. At the end of the culture, cell viability was assessed using the MTT (3-(4,5-Dimethylthiazol-2-yl)-2,5-diphenyltetrazolium bromide) assay.
# This example illustrates that the inhibition of proinflammatory cytokine secretion induced by lowering intracellular NAD levels is not due to apoptosis induction. Human PBMC were isolated and cultured overnight with increasing doses of FK866, and then stimulated with LPS for 6 h. At the end of the culture, cell viability was assessed using the MTT (3-(4,5-Dimethylthiazol-2-yl)-2,5-diphenyltetrazolium bromide) assay.
# [4] = test system: human peripheral blood mononuclear cells (PBMC); assay: LPS-stimulated TNF and IL-6 secretion by ELISA in PBMC; type: cell-based; conditions: overnight increasing doses of FK866, LPS 6 h
# Experimental: (§1) Human monocytic cell line THP-1, human peripheral blood mononuclear cells (PBMC), human monocyte-derived dendritic cells, or mouse peritoneal macrophages were isolated and cultured overnight with increasing doses of FK866, and then stimulated with LPS for 6 h. The culture supernatants were tested for TNF and IL-6 content by ELISA
# (§2) This example describes the inhibition of pro-inflammatory cytokines production by the competitive small molecular weight compound inhibitor of NMPRT, ((E)-N-[4-(1-benzoylpiperidin-4-yl)butyl]-3-(pyridin-3-yl)acrylamide, designated FK866). Human monocytic cell line THP-1, human peripheral blood mononuclear cells (PBMC), human monocyte-derived dendritic cells, or mouse peritoneal macrophages were isolated and cultured overnight with increasing doses of FK866, and then stimulated with LPS for 6 h. The culture supernatants were tested for TNF and IL-6 content by ELISA.
# [5] = Toxicity and tolerability in treated CIA mice (weight, histopathology, ALT, hematology); type: in vivo, mouse
# Experimental: Test mice (n=20) were twice daily treated ip with 10 mg/kg of FK866 from the first day onward of appearance of clinical arthritis (clinical score>1) during 14 days. Placebo mice (n=20) received vehicle only. Groups of animals were compared with respect to variation of their clinical scoring, and of their weight (d) by statistical analysis using the two-way ANOVA. A semi-quantitative histological evaluation was performed on the knee sections using a 4 points (0-3) scoring system to evaluate inflammatory infiltrate and synovial hyperplasia. (c) Circulating SAA levels: Sera from placebo- and FK866-treated CIA mice at day 14 (n=8 and n=7, respectively) were prepared and analyzed by SAA ELISA according to the manufacturer's instructions.
# [6] = test system: mouse peritoneal macrophages; assay: LPS-stimulated TNF and IL-6 secretion by ELISA in peritoneal macrophages; type: cell-based; conditions: overnight increasing doses of FK866, LPS 6 h
# Experimental: as §1, §2
# [7] = 10 mg/kg ip twice daily, 14 days, 0-3 histological score, vs placebo
# [8] = CIA mice, end of the experiment
smiles,measurement,setting,value
"O=C(/C=C/c1cccnc1)NCCCCC1CCN(C(=O)c2ccccc2)CC1 [FK866, (E)-N-[4-(1-benzoylpiperidin-4-yl)butyl]-3-(pyridine-3-yl)-acrylamide]",inflammatory infiltrate in knee joint sections,[1]; [7],statistically significant decrease
same,synovial hyperplasia in knee joint sections,[1]; [7],statistically significant decrease
same,histology of knees and paws,"[1]; 10 mg/kg ip twice daily, 14 days, vs placebo",much less inflammation
same,paw inflammation,"[1]; 10 mg/kg ip twice daily, after 2 weeks of treatment, vs placebo",minimal signs of inflammation
same,effect on established CIA (dose-response),"[1]; 2, 5 or 10 mg/kg ip twice daily for 15 days",marked protective dose-dependent effect
same,IL-1β in paw tissue extracts,[1]; [8],significantly reduced
same,IL-6 in paw tissue extracts,[1]; [8],significantly reduced
same,IL-10 secretion in paw tissue extracts,[1]; [8],remained unchanged
same,MCP-1 in paw tissue extracts,[1]; [8],decreased
same,symptoms of arthritis (clinical score),"[1]; DBA/1 mice, 10 mg/kg ip twice daily for 15 days from clinical score ≧1",ameliorates the symptoms of arthritis
same,severity of arthritis in CIA mice,"[1]; FK866 10 mg/kg ip twice daily or etanercept 15 mg/kg every three days, over 15 days",activity similar to etanercept
same,time until beneficial effect apparent after commencement of treatment,[1]; established CIA,≤ 10 days
same,dose of maximal therapeutic effect on CIA,[1]; ip twice daily for 15 days,10 mg/kg
same,Serum amyloid A protein (SAA) levels,"[1]; sera of CIA mice at day 14, ELISA, vs placebo",decreased
same,TNFα secretion,"[2]; RAW 264.7, graded doses of FK866, stimulated with LPS, ELISA",strongly inhibited
same,TNF production,"[2]; RAW264.7, overnight increasing doses of FK866, LPS 2 h",inhibition of TNF production
same,cell viability (MTT),[3],not affected
same,cytokine secretion (TNF and IL-6),[4],inhibited cytokine secretion in a dose-dependent fashion
same,tolerability,"[5]; CIA mice, 10 mg/kg ip twice daily",well tolerated
same,signs of toxicity,"[5]; CIA mice, 10 mg/kg ip twice daily, 14 days",no signs of toxicity
same,"% LYMPHO, mean",[5]; hematology of treated CIA mice,60%
same,"% MONO, mean",[5]; hematology of treated CIA mice,10.4%
same,"% NEUTRO, mean",[5]; hematology of treated CIA mice,29.7%
same,"HCT, mean",[5]; hematology of treated CIA mice,52.8%
same,"HGB, mean",[5]; hematology of treated CIA mice,14.1 g/dL
same,"PLT, mean",[5]; hematology of treated CIA mice,1688 10^3/mm^3
same,"RBC, mean",[5]; hematology of treated CIA mice,9.4 10^3/mm^3
same,"WBC, mean",[5]; hematology of treated CIA mice,11.5 10^6/mm^3
same,weight of the mice,[5]; placebo- vs FK866-treated groups,comparable
same,premature death,[5]; treated group,no premature death
same,hematological examination,[5]; treated vs control mice,similarity between the treated and control mice
same,"histopathology of liver, spleen, lung, gut, kidney, inguinal lymph nodes and brain",[5]; vs control animals,no different from control animals
same,cytokine secretion (TNF and IL-6),[6],inhibited cytokine secretion in a dose-dependent fashion
